These results are taken from ChEMBL document CHEMBL1139994, “Discovery of novel dialkyl substituted thiophene inhibitors of HCV by in silico screening of the NS5B RdRp” (Bioorg Med Chem Lett, 2007).

For orientation: IC50 means the concentration at which inhibition is half-maximal. A high value points to weaker potency. For orientation: EC50 means the midpoint of the concentration-response curve. Low readings indicate a more potent agent, high ones a less potent agent.

Assay [1] concerns Hepatitis C virus. The assay is described as follows: Inhibition of HCV replicase complex in cell-free assay. Particulars: Hepacivirus hominis.
Assay [2] is described as follows: Ratio of CC50 for Huh7 cells to EC50 for HCV. Format: functional, Huh-7.
In assay [3] the target is Hepatitis C virus. The assay is described as follows: Antiviral activity against HCV by replicon assay. For orientation: Replicon systems follow genome replication, usually without infectious particles.

`NC(=O)c1c(NC(=O)CCc2ccccc2)sc2c1CCCC2`: in the assay on Hepatitis C virus [1], the IC50 is greater than 100 µM.
For `CCc1c(C)sc(NC(=O)CCc2ccccc2)c1C(N)=O`, in assay [2], the “Ratio CC50/EC50” value was 3. Besides, a half-maximal effect at Hepatitis C virus [3] (EC50) was put at 0.92 µM. This molecule had an IC50 in the assay on Hepatitis C virus [1] of 50 µM.
`CCC1CCc2c(sc(NC(=O)CCc3ccccc3)c2C#N)C1` (stereo not given) had an IC50 with Hepatitis C virus [1] greater than 100 µM.
As to `CCOC(=O)c1c(NC(=O)CCc2ccccc2)sc(C)c1CC`, the IC50 with Hepatitis C virus [1] was greater than 100 µM.
As to `CC1CCc2c(sc(NC(=O)CCc3ccccc3)c2C(N)=O)C1` (stereo not given), in the assay with Hepatitis C virus [1], the IC50 is greater than 100 µM.
Consider `CCc1c(C)sc(NC(=O)CCc2ccccc2)c1C#N`, for which, in assay [2], the “Ratio CC50/EC50” value is recorded as 3. On Hepatitis C virus [3], this molecule displayed an EC50 of 1.66 µM. In addition, the IC50 in the assay with Hepatitis C virus [1] was 25 µM.
With `CCc1c(C)sc(NC(=O)CCc2ccccc2)c1C(=O)O`, the IC50 in the assay on Hepatitis C virus [1] is greater than 100 µM.
Still for that read-out and setting: then `Cc1sc(NC(=O)CCc2ccccc2)c(C(N)=O)c1C`, with greater than 100 µM.
For `CCC1CCc2c(sc(NC(=O)CCc3ccccc3)c2C(N)=O)C1` (stereo not given), in assay [2], the “Ratio CC50/EC50” value was found to be 3. Further, the EC50 at Hepatitis C virus [3] worked out at 1.95 µM. This molecule registered an IC50 in the assay with Hepatitis C virus [1] of 30 µM.
